Experimental data: the supplement of paper PMC11061612

Tests used:
Experiment in all cases: combination Emax (second highest fraction inhibited in the dose matrix, 72 h); higher = more inhibition; extreme values may be limits of the assay
[1] = test system: NCI-H2342 (Lung Adenocarcinoma)
In short: (§1)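 Cell lines in DMEM/F12 or RPMI with 10% FBS were plated in 1536-well plates, held 24 hours at 37°C, 5% CO2, then given two-drug dose matrices for 72 hours (DMSO typically 0.2%). Viability was read by CellTiter-Glo 2.0 luminescence and scaled as inhibition from 0 (vehicle wells) to 1 (blank wells). Combination Emax is the second-highest inhibition in the matrix; Bliss excess is observed combination effect minus expected EA + EB − EA·EB, EA and EB being single-agent effects.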

[2] = test system: MKN45 (Gastric Carcinoma)
In short: as §1

WM278 (Melanoma) = test system: WM278 (Melanoma)
In short: as §1

[3] = test system: SHP-77 (Small Cell Lung Carcinoma)
In short: as §1

[4] = test system: OAW-42 (Ovarian Carcinoma)
In short: as §1

WM793B (Melanoma) = test system: WM793B (Melanoma)
In short: as §1

[5] = test system: HSC-39 (Gastric Carcinoma)
In short: as §1

[6] = test system: RCM-1 (Colorectal Carcinoma)
In short: as §1

[7] = test system: SU-DHL-10 (B-Cell Non-Hodgkin's Lymphoma)
In short: as §1

[8] = test system: PSN1 (Pancreatic Carcinoma)
In short: as §1

[9] = test system: COLO-680N (Esophageal Squamous Cell Carcinoma)
In short: as §1

[10] = test system: NCI-H23 (Lung Adenocarcinoma)
In short: as §1

[11] = test system: REH (B-Lymphoblastic Leukemia)
In short: as §1

[12] = test system: RERF-GC-1B (Gastric Carcinoma)
In short: as §1

[13] = test system: FADU (Head and Neck Carcinoma)
In short: as §1

[14] = test system: HCT-15 (Colorectal Carcinoma)
In short: as §1

[15] = test system: RKN (Other Solid Carcinomas)
In short: as §1

A2058 (Melanoma) = test system: A2058 (Melanoma)
In short: as §1

[16] = test system: RERF-LC-Sq1 (Squamous Cell Lung Carcinoma)
In short: as §1

[17] = test system: LB996-RCC (Kidney Carcinoma)
In short: as §1

| Compound | combination Emax [1] | combination Emax [2] | combination Emax (WM278 (Melanoma)) | combination Emax [3] | combination Emax [4] | combination Emax (WM793B (Melanoma)) | combination Emax [5] | combination Emax [6] | combination Emax [7] | combination Emax [8] | combination Emax [9] | combination Emax [10] | combination Emax [11] | combination Emax [12] | combination Emax [13] | combination Emax [14] | combination Emax [15] | combination Emax (A2058 (Melanoma)) | combination Emax [16] | combination Emax [17] |
| --- | --- | --- | --- | --- | --- | --- | --- | --- | --- | --- | --- | --- | --- | --- | --- | --- | --- | --- | --- | --- |
| NC1(C(=O)N[C@@H](CCO)c2ccc(Cl)cc2)CCN(c2ncnc3[nH]ccc23)CC1 [Capivasertib] + CC(=O)c1c(C)c2cnc(Nc3ccc(N4CCNCC4)cn3)nc2n(C2CCCC2)c1=O [Palbociclib] (first compound max 10 µM, 7x7, partner max 10 µM) | 0.327 | 0.628 | 0.402 | 0.499 | 0.548 | 0.548 | 0.749 | 0.383 | 1 | 0.484 | 0.197 | 0.512 | 0.609 | 0.458 | 0.527 | 0.665 | 0.182 | 0.638 | 0.873 | 0.781 |
| NC1(C(=O)N[C@@H](CCO)c2ccc(Cl)cc2)CCN(c2ncnc3[nH]ccc23)CC1 [Capivasertib] + CC(C)n1c(=O)n(C)c2cnc3cc(F)c(-c4ccc(OCCCN5CCCCC5)nc4)cc3c21 [AZD1390] (first compound max 10 µM, 7x7, partner max 0.3 µM) | 0.284 | 0.432 | 0.316 | 0.226 | 0.439 | 0.438 | 0.432 | 0.253 | 1 | 0.256 | 0.197 | 0.297 | 0.461 | 0.433 | 0.221 | 0.312 | 0.365 | 0.458 | 0.841 | 0.645 |
| NC1(C(=O)N[C@@H](CCO)c2ccc(Cl)cc2)CCN(c2ncnc3[nH]ccc23)CC1 [Capivasertib] + CCN(CCO)CCCOc1ccc2c(Nc3cc(CC(=O)Nc4cccc(F)c4)[nH]n3)ncnc2c1 [AZD2811] (first compound max 10 µM, 7x7, partner max 1 µM) | 0.482 | 0.486 | 0.431 | 0.271 | 0.48 | 0.527 | 0.948 | 0.197 | 1 | 0.371 | 0.195 | 0.387 | 0.848 | 0.542 | 0.36 | 0.394 | 0.254 | 0.798 | 0.892 | 0.71 |
| NC1(C(=O)N[C@@H](CCO)c2ccc(Cl)cc2)CCN(c2ncnc3[nH]ccc23)CC1 [Capivasertib] + COc1nnc2ccc(N3CCC(c4ccc(OCCN5CCN(C)C(=O)[C@H]5C)cc4)CC3)nn12 [AZD5153] (first compound max 10 µM, 7x7, partner max 1 µM) | 0.46 | 0.58 | 0.734 | 0.607 | 0.619 | 0.616 | 0.916 | 0.613 | 1 | 0.256 | 0.276 | 0.773 | 0.987 | 0.617 | 0.65 | 0.717 | 0.449 | 0.882 | 1 | 0.72 |
| NC1(C(=O)N[C@@H](CCO)c2ccc(Cl)cc2)CCN(c2ncnc3[nH]ccc23)CC1 [Capivasertib] + C[C@@H]1COCCN1C2=NC(=NC(=C2)C3(CC3)[S@](=N)(=O)C)C4=C5C=CNC5=NC=C4 [AZD6738] (first compound max 10 µM, 7x7, partner max 10 µM) | 0.585 | 0.753 | 0.579 | 0.424 | 0.644 | 0.842 | 1 | 0.665 | 1 | 0.536 | 0.373 | 0.87 | 0.933 | 0.558 | 0.594 | 0.738 | 0.272 | 0.805 | 0.873 | 0.823 |
| NC1(C(=O)N[C@@H](CCO)c2ccc(Cl)cc2)CCN(c2ncnc3[nH]ccc23)CC1 [Capivasertib] + Cn1cnc2c(F)c(Nc3ccc(Br)cc3Cl)c(C(=O)NOCCO)cc21 [Selumetinib] (first compound max 10 µM, 7x7, partner max 10 µM) | 0.381 | 0.705 | 0.722 | 0.384 | 0.548 | 0.768 | 0.852 | 0.668 | 1 | 0.772 | 0.392 | 0.454 | 0.492 | 0.6 | 0.531 | 0.559 | 0.479 | 0.895 | 0.917 | 0.678 |
| Cc1nc(Nc2ncc(C(=O)Nc3c(C)cccc3Cl)s2)cc(N2CCN(CCO)CC2)n1 [Dasatinib] + CC(=O)Nc1cccc(-n2c(=O)n(C3CC3)c(=O)c3c(Nc4ccc(I)cc4F)n(C)c(=O)c(C)c32)c1 [Trametinib] (first compound max 2 µM, 7x7, partner max 1 µM) | 0.232 | 0.79 | 0.808 | 0.172 | 0.722 | 0.705 | 0.498 | 0.798 | 0.837 | 0.942 | 0.554 | 0.765 | 0.089 | 1 | 0.515 | 0.71 | 0.712 | 0.644 | 0.562 | 0.893 |
| COc1cc2ncnc(Nc3ccc(F)c(Cl)c3)c2cc1OCCCN1CCOCC1 [Gefitinib] + CC(C)n1c(=O)n(C)c2cnc3cc(F)c(-c4ccc(OCCCN5CCCCC5)nc4)cc3c21 [AZD1390] (first compound max 10 µM, 7x7, partner max 0.3 µM) | 0.0812 | 0.14 | 0.0959 | 0.0777 | 0.107 | 0.142 | 0.217 | 0.41 | 0.723 | 0.102 | 0.213 | 0.107 | 0.145 | 0.265 | 0.471 | 0.352 | 0.175 | 0.119 | 0.543 | 0.391 |
| CS(=O)(=O)CCNCc1ccc(-c2ccc3ncnc(Nc4ccc(OCc5cccc(F)c5)c(Cl)c4)c3c2)o1 [Lapatinib] + C[C@@H](Oc1cc(-c2cnn(C3CCNCC3)c2)cnc1N)c1c(Cl)ccc(F)c1Cl [Crizotinib] (first compound max 10 µM, 7x7, partner max 10 µM) | 0.43 | 0.913 | 0.768 | 0.817 | 0.732 | 0.973 | 0.981 | 0.865 | 1 | 0.806 | 0.483 | 0.645 | 0.964 | 0.951 | 0.931 | 0.925 | 0.294 | 0.991 | 0.949 | 0.98 |
| CC(=O)c1c(C)c2cnc(Nc3ccc(N4CCNCC4)cn3)nc2n(C2CCCC2)c1=O [Palbociclib] + CC1(C)CCC(CN2CCN(c3ccc(C(=O)NS(=O)(=O)c4ccc(NCC5CCOCC5)c([N+](=O)[O-])c4)c(Oc4cnc5[nH]ccc5c4)c3)CC2)=C(c2ccc(Cl)cc2)C1 [Venetoclax] (first compound max 10 µM, 7x7, partner max 1 µM) | 0.0497 | 0.486 | 0.185 | 0.671 | 0.105 | 0.327 | 0.633 | 0.394 | 1 | 0.437 | 0.0584 | 0.168 | 0.825 | 0.0488 | 0.17 | 0.526 | 0.102 | 0.0912 | 0.436 | 0.318 |
| CC(=O)c1c(C)c2cnc(Nc3ccc(N4CCNCC4)cn3)nc2n(C2CCCC2)c1=O [Palbociclib] + Cc1c2c(nn1C)CSCc1cc(n(C)n1)CSc1cc(c3ccccc3c1)OCCCc1c(C(=O)O)n(C)c3c-2c(Cl)ccc13 [AZD5991] (first compound max 10 µM, 7x7, partner max 1 µM) | 0.348 | 0.498 | 0.156 | 0.646 | 0.223 | 0.432 | 0.995 | 0.327 | 1 | 0.564 | 0.237 | 0.934 | 0.835 | 0.784 | 0.888 | 0.532 | 0.151 | 0.753 | 0.594 | 0.397 |
| CC(=O)c1c(C)c2cnc(Nc3ccc(N4CCNCC4)cn3)nc2n(C2CCCC2)c1=O [Palbociclib] + Cn1cnc2c(F)c(Nc3ccc(Br)cc3Cl)c(C(=O)NOCCO)cc21 [Selumetinib] (first compound max 10 µM, 7x7, partner max 10 µM) | 0.107 | 0.694 | 0.574 | 0.527 | 0.168 | 0.585 | 0.667 | 0.63 | 0.997 | 0.702 | 0.193 | 0.387 | 0.448 | 0.333 | 0.412 | 0.523 | 0.399 | 0.47 | 0.512 | 0.285 |
| COc1cccc(OCCCN)c1-c1cc(Nc2cnc(C#N)cn2)n[nH]1 [Prexasertib] + CCc1c2c(nc3ccc(O)cc13)-c1cc3c(c(=O)n1C2)COC(=O)[C@]3(O)CC [SN-38] (first compound max 1 µM, 7x7, partner max 0.3 µM) | 0.283 | 0.853 | 0.695 | 0.988 | 0.827 | 0.896 | 1 | 0.887 | 1 | 0.931 | 0.685 | 0.948 | 1 | 0.994 | 0.998 | 0.993 | 0.966 | 0.924 | 0.824 | 0.947 |
